Data published in patent US12479847B2 (DANA-FARBER CANCER INSTITUTE, INC., priority 2019, dated 2025).

Legend:
Assay in all cases: KINOMEscan (ScanMAX) kinase profiling
Assay type in all cases: binding
panel of 468 kinases [1] = target: T1, panel of 468 kinases (Homo sapiens, UniProt O14733); conditions: MKK7; 1 μM; read-out: % control
T1 construct: purchased KINOMEscan (ScanMAX) service
T1 sequence (O14733 1-419): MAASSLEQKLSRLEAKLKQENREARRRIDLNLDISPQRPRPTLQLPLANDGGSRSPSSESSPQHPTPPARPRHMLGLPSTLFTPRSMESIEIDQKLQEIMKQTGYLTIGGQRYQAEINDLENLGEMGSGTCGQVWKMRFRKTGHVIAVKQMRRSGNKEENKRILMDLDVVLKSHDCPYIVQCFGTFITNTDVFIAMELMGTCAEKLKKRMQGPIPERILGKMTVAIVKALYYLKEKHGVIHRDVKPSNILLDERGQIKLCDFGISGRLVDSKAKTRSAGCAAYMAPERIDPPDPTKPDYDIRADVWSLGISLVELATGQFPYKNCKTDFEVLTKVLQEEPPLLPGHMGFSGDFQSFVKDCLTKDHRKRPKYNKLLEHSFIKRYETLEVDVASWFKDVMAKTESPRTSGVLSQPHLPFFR

panel of 468 kinases [2] = target: T2, panel of 468 kinases (Homo sapiens, UniProt O14965); conditions: AURKA; 1 μM; read-out: % control
T2 construct: purchased KINOMEscan (ScanMAX) service
T2 sequence (O14965 1-403): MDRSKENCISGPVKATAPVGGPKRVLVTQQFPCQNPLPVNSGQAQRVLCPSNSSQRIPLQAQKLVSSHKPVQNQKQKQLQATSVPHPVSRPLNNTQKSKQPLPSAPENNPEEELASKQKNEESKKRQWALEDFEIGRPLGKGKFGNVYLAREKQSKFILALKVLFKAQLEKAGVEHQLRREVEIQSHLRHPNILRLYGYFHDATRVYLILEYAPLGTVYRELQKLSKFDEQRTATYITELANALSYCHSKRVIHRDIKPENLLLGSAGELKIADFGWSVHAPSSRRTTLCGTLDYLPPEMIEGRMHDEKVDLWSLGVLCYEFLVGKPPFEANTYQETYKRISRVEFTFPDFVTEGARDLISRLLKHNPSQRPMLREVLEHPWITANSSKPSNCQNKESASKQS

panel of 468 kinases [3] = target: T3, panel of 468 kinases (Homo sapiens, UniProt P49761); conditions: CLK3; 1 μM; read-out: % control
T3 construct: purchased KINOMEscan (ScanMAX) service

panel of 468 kinases [4] = target: T4, panel of 468 kinases (Homo sapiens, UniProt Q02156); conditions: PRKCE; 1 μM; read-out: % control
T4 construct: purchased KINOMEscan (ScanMAX) service
T4 sequence (Q02156 1-737): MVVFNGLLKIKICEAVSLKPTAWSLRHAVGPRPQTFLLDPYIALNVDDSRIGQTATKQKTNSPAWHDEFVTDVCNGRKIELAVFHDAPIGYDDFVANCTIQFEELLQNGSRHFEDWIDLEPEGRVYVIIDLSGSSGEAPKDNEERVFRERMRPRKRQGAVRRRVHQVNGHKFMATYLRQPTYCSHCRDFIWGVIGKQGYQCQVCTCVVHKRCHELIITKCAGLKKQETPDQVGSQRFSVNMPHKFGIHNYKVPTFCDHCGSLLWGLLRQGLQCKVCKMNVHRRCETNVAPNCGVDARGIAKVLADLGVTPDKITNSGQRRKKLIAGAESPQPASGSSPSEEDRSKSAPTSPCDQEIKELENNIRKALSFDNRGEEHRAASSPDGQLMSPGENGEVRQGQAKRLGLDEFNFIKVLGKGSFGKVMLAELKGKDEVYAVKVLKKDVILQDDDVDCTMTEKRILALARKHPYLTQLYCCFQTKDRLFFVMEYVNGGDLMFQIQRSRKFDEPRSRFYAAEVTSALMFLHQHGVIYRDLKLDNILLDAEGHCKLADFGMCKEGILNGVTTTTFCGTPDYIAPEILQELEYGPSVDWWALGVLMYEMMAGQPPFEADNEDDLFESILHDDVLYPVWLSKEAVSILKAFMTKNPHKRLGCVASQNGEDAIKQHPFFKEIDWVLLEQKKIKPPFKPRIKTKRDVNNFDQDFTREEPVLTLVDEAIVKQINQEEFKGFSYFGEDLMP

panel of 468 kinases [5] = target: T5, panel of 468 kinases (Homo sapiens, UniProt Q13705); conditions: ACVR2B; 1 μM; read-out: % control
T5 construct: purchased KINOMEscan (ScanMAX) service

panel of 468 kinases [6] = target: T6, panel of 468 kinases (Homo sapiens, UniProt Q14289); conditions: PYK2; 1 μM; read-out: % control
T6 construct: purchased KINOMEscan (ScanMAX) service

panel of 468 kinases [7] = target: T7, panel of 468 kinases (Homo sapiens, UniProt Q8IW41); conditions: MAPKAPK5; 1 μM; read-out: % control
T7 construct: purchased KINOMEscan (ScanMAX) service
T7 sequence (Q8IW41 1-473): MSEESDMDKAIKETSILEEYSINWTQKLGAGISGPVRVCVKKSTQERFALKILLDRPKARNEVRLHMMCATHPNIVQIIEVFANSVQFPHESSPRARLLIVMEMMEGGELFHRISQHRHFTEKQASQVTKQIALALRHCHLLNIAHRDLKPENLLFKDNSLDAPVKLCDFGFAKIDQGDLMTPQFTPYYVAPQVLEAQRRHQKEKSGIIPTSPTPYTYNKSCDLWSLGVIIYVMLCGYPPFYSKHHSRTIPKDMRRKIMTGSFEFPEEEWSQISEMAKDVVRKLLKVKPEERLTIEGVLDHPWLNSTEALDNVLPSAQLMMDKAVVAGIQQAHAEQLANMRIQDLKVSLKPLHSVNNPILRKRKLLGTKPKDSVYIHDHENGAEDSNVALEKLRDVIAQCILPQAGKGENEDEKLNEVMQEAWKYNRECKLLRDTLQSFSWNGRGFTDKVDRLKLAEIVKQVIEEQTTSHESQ

T6 sequence (Q14289 whole entry): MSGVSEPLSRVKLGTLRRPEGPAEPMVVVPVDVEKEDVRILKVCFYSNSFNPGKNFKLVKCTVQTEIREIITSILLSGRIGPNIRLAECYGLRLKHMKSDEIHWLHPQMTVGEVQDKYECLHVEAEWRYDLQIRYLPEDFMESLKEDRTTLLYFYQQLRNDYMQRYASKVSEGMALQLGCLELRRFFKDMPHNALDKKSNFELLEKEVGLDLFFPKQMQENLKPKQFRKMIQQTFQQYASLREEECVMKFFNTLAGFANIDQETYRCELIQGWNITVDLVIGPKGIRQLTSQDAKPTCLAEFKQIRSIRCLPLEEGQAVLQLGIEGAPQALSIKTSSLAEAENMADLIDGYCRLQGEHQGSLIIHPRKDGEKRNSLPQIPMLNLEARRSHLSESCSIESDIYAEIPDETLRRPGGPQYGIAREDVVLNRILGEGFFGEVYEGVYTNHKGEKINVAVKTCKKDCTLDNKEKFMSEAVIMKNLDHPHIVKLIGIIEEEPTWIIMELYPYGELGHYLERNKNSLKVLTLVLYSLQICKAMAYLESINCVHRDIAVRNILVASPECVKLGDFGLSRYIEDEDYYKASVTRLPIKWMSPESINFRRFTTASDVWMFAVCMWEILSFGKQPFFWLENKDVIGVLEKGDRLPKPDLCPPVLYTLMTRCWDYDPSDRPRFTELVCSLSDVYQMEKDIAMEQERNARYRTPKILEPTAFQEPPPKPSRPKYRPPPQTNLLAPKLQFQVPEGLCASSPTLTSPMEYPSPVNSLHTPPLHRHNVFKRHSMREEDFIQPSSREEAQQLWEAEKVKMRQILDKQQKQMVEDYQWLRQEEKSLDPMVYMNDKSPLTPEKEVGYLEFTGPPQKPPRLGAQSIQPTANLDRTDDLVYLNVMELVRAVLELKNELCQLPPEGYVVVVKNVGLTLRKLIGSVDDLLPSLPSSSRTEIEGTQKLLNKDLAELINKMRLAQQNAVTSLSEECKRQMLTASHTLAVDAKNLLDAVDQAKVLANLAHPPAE
T5 sequence (Q13705 19-512): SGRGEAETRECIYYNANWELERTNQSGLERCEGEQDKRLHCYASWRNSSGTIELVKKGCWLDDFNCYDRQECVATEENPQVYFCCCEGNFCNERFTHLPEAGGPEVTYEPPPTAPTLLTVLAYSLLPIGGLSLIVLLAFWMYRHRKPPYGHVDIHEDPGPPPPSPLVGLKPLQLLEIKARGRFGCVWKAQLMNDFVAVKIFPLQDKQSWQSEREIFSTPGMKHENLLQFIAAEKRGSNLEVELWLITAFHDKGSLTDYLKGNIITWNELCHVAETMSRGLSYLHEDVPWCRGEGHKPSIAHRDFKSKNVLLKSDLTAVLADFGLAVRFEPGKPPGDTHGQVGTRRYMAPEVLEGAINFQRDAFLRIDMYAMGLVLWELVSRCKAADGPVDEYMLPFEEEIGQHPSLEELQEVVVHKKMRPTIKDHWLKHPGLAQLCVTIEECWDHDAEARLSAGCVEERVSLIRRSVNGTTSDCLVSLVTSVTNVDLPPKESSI
T3 sequence (P49761 whole entry): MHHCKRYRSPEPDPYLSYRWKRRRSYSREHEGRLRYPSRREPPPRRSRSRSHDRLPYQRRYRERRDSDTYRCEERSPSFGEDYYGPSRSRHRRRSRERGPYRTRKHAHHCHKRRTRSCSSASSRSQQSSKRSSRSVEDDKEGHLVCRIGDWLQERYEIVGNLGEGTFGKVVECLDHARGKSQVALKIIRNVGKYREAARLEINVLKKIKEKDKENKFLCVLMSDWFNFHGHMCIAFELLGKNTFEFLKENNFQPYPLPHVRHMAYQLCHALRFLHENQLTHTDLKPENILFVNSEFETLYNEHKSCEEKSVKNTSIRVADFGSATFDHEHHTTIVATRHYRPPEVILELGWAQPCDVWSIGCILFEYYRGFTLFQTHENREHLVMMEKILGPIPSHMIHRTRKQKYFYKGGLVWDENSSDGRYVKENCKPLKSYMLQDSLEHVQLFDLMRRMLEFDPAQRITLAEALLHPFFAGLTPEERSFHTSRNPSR

Structure (SMILES)	remaining binding at 1 µM (panel of 468 kinases [1]) [%]	remaining binding at 1 µM (panel of 468 kinases [2]) [%]	remaining binding at 1 µM (panel of 468 kinases [3]) [%]	remaining binding at 1 µM (panel of 468 kinases [4]) [%]	remaining binding at 1 µM (panel of 468 kinases [5]) [%]	remaining binding at 1 µM (panel of 468 kinases [6]) [%]	remaining binding at 1 µM (panel of 468 kinases [7]) [%]
CNc1nc(Nc2ccc(C(=O)N3CCC(N4CCOCC4)CC3)c3c2OCO3)nc2[nH]cc(Cl)c12 [Compound 75, (7-((5-chloro-4-(methylamino)-7H-pyrrolo[2,3-d]pyrimidin-2-yl)amino)benzo[d][1,3]dioxol-4-yl)(4-morpholinopiperidin-1-yl)methanone]	96	45	58	73	95	40	43
CNc1nc(Nc2ccc(S(=O)(=O)N3CCC(N4CCOCC4)CC3)cc2OC)nc2[nH]cc(Cl)c12 [Compound 12, 5-chloro-N2-(2-methoxy-4-((4-morpholinopiperidin-1-yl)sulfonyl)phenyl)-N4-methyl-7H-pyrrolo[2,3-d]pyrimidine-2,4-diamine]	100	93	77	62	79	35	67
CNc1nc(Nc2ccc(P3(=O)CCN(C4CCOCC4)CC3)cc2OC)nc2[nH]cc(Cl)c12 [Compound 77, 4-(4-((5-chloro-4-(methylamino)-7H-pyrrolo[2,3-d]pyrimidin-2-yl)amino)-3-methoxyphenyl)-1-(tetrahydro-2H-pyran-4-yl)-1,4-azaphosphinane 4-oxide]	100	85	93	87	73	27	46
